Results taken from patent publication US8227508B2, “Dietary and pharmaceutical compositions containing carnosol and/or rosmanol and their uses” (DSM IP Assets B.V., priority 2006, dated 2012).

Experiments:
[1] = molecular target: T1, human dopamine transporter (hDAT) (Homo sapiens, UniProt Q01959); experiment: cell-based; conditions: transfected CHO-K1 cells, 50 nM [3H]-dopamine; read-out: IC50, inhibition of dopamine reuptake
T1 construct: expressed in transfected cells; host or cells: CHO-K1
Method: Specific signal was determined in the presence of 10 μM nomifensine (dopamine reuptake inhibitor). Cells were then solubilised with 1% SDS lysis buffer.

[2] = molecular target: T2, human noradrenaline transporter (hNAT) (Homo sapiens, UniProt P23975); experiment: Noradrenaline uptake inhibition in MDCK cells expressing hNAT; type: cell-based
T2 construct: expressed in transfected cells; host or cells: MDCK
Method: Madin Darby canine kidney (MDCK) cells, stably expressing the human noradrenaline transporter (hNAT), were plated one day before the assay. […] Cells in each well were then rinsed twice, solubilised with 1% SDS lysis buffer and the lysate was analysed to determine [^3H]-noradrenaline uptake. […] Reduction of [^3H]-noradrenaline uptake by 50 percent or more (≧50%) relative to vehicle controls indicated significant inhibitory activity.

[3] = molecular target: T3, human calcitonin gene-related peptide (hCGRP) receptor (Homo sapiens, UniProt O60894+Q16602); experiment: CGRP receptor radioligand binding assay; conditions: 0.03 nM [125I]h-CGRPα, CHO cell membranes, read-out: percentage inhibition of control radioligand specific binding to hCGRP receptor
T3 construct: expressed in transfected cells; host or cells: CHO (membrane homogenates)
Method: The effect of carnosol on the agonist site of the human calcitonin gene-related peptide (hCGRP) receptor in transfected CHO cells was investigated using a radioligand binding assay adapted from that described by Aiyar et al. (1996, J. Biol. Chem., 271: 11325-11329).
Briefly, cell membrane homogenates (10 μg protein) were incubated for 90 min at 22° C. with 0.03 nM [^125I]h-CGRPα in the absence or presence of carnosol (10 μM) in a buffer containing 50 mM HEPES-NaOH (pH 7.4), 10 mM MgCl2, 4 mM KCl, 10 mM NaCl, 1 mM EDTA, 1 μM phosphoramidon, 0.3% BSA and 0.04% bacitracine. Non-specific binding was determined in the presence of 1 μM h-CGRPα. Following incubation, the samples were filtered rapidly under vacuum through glass fibre filters (GF/B, Packard) pre-soaked with 0.3% polyethyleneimine (PEI) and rinsed several times with ice-cold 50 mM Tris-HCl using a 96-sample cell harvester (Unifilter, Packard). The filters were dried then counted for radioactivity in a scintillation counter (Topcount, Packard) using a scintillation cocktail (Microscint 0, Packard). The results are expressed as percentage inhibition of the control radioligand specific binding. The standard reference compound used was h-CGRPα, the natural agonist of the hCGRP receptor.

[4] = molecular target: human recombinant acetylcholinesterase (Homo sapiens, UniProt P22303); experiment: Acetylcholinesterase inhibition (Ellman method); type: biochemical; conditions: substrate AMTCh 50 μM, read-out: percentage inhibition of acetylcholinesterase activity
Method: The effect of carnosol on human recombinant acetylcholinesterase activity was quantified by measuring the formation of 5-thio-2-nitrobenzoic acid from acetyl-6-methylthiocholine (AMTCh), as adapted from Ellman et al. (1961, Biochem. Pharmacol., 7: 88-90). Briefly, carnosol (10 μM), reference compound or water (control) were added to a buffer containing 200 mM NaH2PO4/Na2HPO4 (pH 8.0), 5 mg/ml (NH4)2SO4, 0.4 mM DTNB and 5 mU enzyme. The enzymatic reaction was then initiated by the addition of the substrate AMTCh at 50 μM. The absorbance was measured immediately (t=0) at λ=405 nm using a microplate reader (MRX, Dynatech or Ultra, Tecan). This measurement was used to detect any compound interference with the spectrophotometric detection at this wavelength. After 30 min incubation at 37° C. (t=30), a second measurement of the absorbance was made at λ=405 nm. The enzyme activity was determined by subtracting the signal measured at t=0 from that measured at t=30. The results are expressed as percentage inhibition of the control enzyme activity. The standard inhibitory reference compound used was neostigmine, tested in each experiment at several concentrations to obtain an inhibition curve from which its IC50 value was calculated.

mouse [5] = experiment: Porsolt's Forced Swim Test (FST); type: in vivo
Method: The Forced Swim Test (FST) was first reported in 1977 for screening of antidepressant-like compounds in rats (Porsolt et al 1977 Nature, 266:730-732) and, later, modified for testing mice (Porsolt et al 1977 Arch. Int. Pharmacodynamie, 229:327-336).
In two separate experiments, mice were tested following either i.p. or p.o. administration of carnosol. Mice were individually placed in a cylinder containing water (22° C.) from which they could not escape. The mice were placed in the water for 6 min and the duration of immobility during the last 4 min was measured. Ten to fifteen mice were studied per group. Carnosol was evaluated at 3, 10, 30 mg/kg body weight (i.p. 30 min before the test) or 200, 400, 600 mg/kg body weight (p.o., 24, 5 and 1 h before the test), and compared with vehicle control groups. Imipramine (32 mg/kg i.p., or p.o., respectively), administered under the same experimental conditions, was used as reference substance. Immobility and swimming time were assessed.

mouse [6] = experiment: Four Plates Test; type: in vivo; conditions: −5 h and −1 h
Source text: The method, which detects anxiolytic activity, follows that described by Aron et al (1971, Neuropharmacology, 10:459-469). Anxiolytics (benzodiazepines) increase the number of punished crossings. Animals were placed individually in a white plastic enclosure containing a floor consisting of 4 metal plates connected to an electric shock generator (Apelex: type 011346). Each mouse was left to explore freely for 15 seconds. Then, every time it crossed from one plate to another, it received a weak electric shock (2.5 mA, 1.5 s). The number of punished crossings was counted during a 1 minute test. 15 mice were studied per group. The test was performed blind.
Carnosol was evaluated at 3 doses (200, 400, 600 mg/kg), administered p.o. 24 h, 5 h and 1 h before the test, and compared with a vehicle control (corn oil) group.
Clobazam (32 mg/kg p.o.), administered 1 h before the test, was used as reference substance. Mice in this group received additional administrations of vehicle at 24 h and 5 h before the test in order to maintain experimental blinding.

human recombinant acetylcholinesterase, sequence (P22303 32-614): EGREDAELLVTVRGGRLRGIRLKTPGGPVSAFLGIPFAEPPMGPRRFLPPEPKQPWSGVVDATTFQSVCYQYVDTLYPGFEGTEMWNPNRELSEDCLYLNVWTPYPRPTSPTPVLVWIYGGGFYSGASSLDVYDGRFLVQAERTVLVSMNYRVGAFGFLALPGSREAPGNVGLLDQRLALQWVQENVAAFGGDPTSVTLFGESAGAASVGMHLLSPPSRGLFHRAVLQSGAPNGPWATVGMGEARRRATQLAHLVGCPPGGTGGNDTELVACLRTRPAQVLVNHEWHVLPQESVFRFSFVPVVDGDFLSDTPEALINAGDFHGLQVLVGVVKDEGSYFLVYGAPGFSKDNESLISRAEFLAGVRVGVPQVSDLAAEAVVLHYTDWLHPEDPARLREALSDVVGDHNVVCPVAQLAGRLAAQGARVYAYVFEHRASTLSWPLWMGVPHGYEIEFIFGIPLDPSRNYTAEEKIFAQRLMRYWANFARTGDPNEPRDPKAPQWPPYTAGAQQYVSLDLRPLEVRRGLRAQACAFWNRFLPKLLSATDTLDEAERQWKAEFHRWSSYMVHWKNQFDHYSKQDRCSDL
T2 sequence (P23975 whole entry): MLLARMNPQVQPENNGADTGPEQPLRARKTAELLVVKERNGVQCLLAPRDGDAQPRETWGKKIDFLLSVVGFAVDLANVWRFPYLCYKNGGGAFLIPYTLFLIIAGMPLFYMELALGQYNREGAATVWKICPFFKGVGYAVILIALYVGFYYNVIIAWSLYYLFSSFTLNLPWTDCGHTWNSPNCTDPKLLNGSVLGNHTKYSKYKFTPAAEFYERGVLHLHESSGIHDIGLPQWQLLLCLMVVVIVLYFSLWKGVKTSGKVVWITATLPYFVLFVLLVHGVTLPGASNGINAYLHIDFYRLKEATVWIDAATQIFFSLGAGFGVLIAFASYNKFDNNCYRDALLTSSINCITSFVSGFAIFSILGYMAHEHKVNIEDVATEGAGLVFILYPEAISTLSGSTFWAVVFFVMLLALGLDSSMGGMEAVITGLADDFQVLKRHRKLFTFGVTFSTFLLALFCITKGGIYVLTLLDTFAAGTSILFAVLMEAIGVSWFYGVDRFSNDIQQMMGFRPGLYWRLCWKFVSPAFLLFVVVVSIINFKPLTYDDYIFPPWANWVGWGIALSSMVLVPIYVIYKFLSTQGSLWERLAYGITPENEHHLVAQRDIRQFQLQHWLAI
T3 sequence (Q16602 23-461): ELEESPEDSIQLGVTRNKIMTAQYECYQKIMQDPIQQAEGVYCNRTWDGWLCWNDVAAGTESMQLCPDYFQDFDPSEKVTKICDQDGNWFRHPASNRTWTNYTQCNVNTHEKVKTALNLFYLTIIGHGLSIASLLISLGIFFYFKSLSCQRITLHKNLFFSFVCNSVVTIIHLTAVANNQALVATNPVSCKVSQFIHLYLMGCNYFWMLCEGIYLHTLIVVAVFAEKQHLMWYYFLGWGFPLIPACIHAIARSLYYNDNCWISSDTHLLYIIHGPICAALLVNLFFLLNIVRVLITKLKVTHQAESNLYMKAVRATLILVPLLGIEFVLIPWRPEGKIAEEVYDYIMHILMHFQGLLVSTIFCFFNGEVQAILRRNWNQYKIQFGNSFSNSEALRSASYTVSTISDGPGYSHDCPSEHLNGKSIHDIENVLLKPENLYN
T3 sequence (O60894 27-148): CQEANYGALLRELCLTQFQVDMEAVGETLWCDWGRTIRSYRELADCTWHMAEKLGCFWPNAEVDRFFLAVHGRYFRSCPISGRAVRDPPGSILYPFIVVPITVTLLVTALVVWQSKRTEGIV
T1 sequence (Q01959 whole entry): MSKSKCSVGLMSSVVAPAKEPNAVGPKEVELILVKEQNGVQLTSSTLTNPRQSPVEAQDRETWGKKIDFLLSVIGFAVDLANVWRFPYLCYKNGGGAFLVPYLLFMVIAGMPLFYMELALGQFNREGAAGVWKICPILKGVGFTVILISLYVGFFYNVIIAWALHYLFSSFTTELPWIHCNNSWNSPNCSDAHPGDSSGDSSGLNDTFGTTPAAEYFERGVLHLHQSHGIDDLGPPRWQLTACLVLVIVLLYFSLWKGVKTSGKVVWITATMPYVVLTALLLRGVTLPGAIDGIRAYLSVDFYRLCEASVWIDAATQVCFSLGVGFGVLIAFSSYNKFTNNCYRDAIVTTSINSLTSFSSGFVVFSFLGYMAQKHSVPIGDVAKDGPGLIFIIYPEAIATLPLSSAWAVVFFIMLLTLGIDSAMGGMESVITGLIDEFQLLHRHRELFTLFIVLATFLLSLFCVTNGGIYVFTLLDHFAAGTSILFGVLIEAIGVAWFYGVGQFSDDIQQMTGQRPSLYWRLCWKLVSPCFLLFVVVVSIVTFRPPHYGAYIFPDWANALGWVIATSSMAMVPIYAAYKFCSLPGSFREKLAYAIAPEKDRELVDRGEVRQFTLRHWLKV

CC(C)c1cc2c(c(O)c1O)[C@@]13CCCC(C)(C)[C@@H]1C[C@@H]2OC3=O [Carnosol, carnosol]
IC50 [1]: 10.3 µM
IC50 [2]: 30.6 µM
inhibition at 10 µM [3]: 54%
inhibition at 10 µM [4]: 53%
Duration of immobility (% change from control) (mouse [5]; 3 mg/kg i.p., −30 min): −26%
Duration of immobility (% change from control) (mouse [5]; 10 mg/kg i.p., −30 min): −21%
Duration of immobility (% change from control) (mouse [5]; 30 mg/kg i.p., −30 min): −18%
Duration of immobility (% change from control) (mouse [5]; 200 mg/kg p.o., −24, −5, −1 h): −9%
Duration of immobility (% change from control) (mouse [5]; 400 mg/kg p.o., −24, −5, −1 h): −53%
Duration of immobility (% change from control) (mouse [5]; 600 mg/kg p.o., −24, −5, −1 h): −3%
Number of punished crossings, mean (mouse [6]; 200 mg/kg p.o. −24 h): 3.5
Number of punished crossings, mean (mouse [6]; 400 mg/kg p.o. −24 h): 3.7
Number of punished crossings, mean (mouse [6]; 600 mg/kg p.o. −24 h): 3.1
